Results on one sequence are retold here after PMC9042912, “T cell receptor and IL-2 signaling strength control memory CD8^+ T cell functional fitness via chromatin remodeling” (Nature Communications, 2022).

For the experiment, the target named is T1, H2-K^b (Mus musculus, UniProt P01901).
T1 construct: RMA-S cells were added per well to a 96-well flat-bottom plate and incubated at 30 °C overnight; endogenous in cells; host or cells: RMA-S cells (TAP-deficient), obtained from Dr. Steve Porcelli
T1 sequence (P01901 22-369): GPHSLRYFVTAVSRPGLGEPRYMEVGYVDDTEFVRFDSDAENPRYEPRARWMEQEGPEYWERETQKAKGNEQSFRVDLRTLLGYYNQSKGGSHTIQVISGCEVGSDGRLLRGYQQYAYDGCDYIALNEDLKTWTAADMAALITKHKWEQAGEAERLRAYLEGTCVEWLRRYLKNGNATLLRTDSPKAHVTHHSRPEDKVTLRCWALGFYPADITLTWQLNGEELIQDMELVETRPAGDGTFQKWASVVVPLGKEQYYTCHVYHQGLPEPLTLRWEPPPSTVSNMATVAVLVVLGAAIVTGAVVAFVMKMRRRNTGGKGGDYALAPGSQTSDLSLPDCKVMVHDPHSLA
T1 sequence (P01887 21-119 partner): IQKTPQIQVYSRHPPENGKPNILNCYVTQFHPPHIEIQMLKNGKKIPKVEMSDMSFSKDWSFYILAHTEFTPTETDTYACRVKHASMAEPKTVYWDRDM
In words: cell-based.

No end group written: not given here.

Regarding SIINFEKA [A8], the Kd (usually the free concentration of one partner at which half of the binding sites on the other are occupied at equilibrium, for simple one-to-one binding) worked out at 351 nM.
